Like-named read-outs stand apart in the source and are kept apart here.
Assays:
[1] = tested on: Sf9 cells; test: quantification of cAMP generated in Sf9 cells after compound treatment ([3H]cAMP competition for bovine adrenal binding protein, single vessel); format: cell-based
Experimental: On the day of the experiment, four-day sold Sf9 cells for use in the first step, with cell density at about 5,000,000 to about 6,000,000 cells, were spun in a Biofuge 15 centrifuge (available from Heneaus Instruments, Germany at 1310 rpm (500 g) for five minutes. After this time, the supernatant was discarded and sufficient Sf9 serum free medium (Sf900 II SFM) was added to the resulting cell pellet give a final concentration of 2,000,000 cells /ml. To these cells was added 0.02 ml of Solution J. Upon completion of addition, the resulting solution was gently mixed and then incubated at ambient temperature for 40 minutes, for use, below .
This method was performed in the manner disclosed in Example 1 except that synephrine was used rather than amitraz, and the concentrations of the synephrine dilutions were in the range of 0.00369 mM to 1.0 mM rather than 0.00123 mM to 0.3 mM.
This method was performed in the manner disclosed in Example 1 except that DL-octopamine was used rather than amitraz, and the concentrations of the DL-octopamine dilutions were in the range of about 0.0123 mM to about 3.0 mM rather than about 0.00123 mM to about 0.3 mM.
This method was performed in the manner disclosed in Example 1 except that DCDM was used rather than amitraz, and the concentrations of the DCDM dilutions were in the range of 0.000123 mM to about 0.03 mM rather than 0.00123 mM to about 0.3 mM.

[2] = tested on: protein derived from a bovine adrenal gland
Experimental: Thereafter, 50 μl of the above-prepared Sf9 cell solution was added to all of the wells. The microplates were incubated at ambient temperature for 45 minutes. After this time, the Sf9 cells were lysed by adding 50 μl of Solution H. The microplates were incubated a second time at ambient temperature for 15 to 20 minutes. After this time, 25 μl of Solution R followed by 25 μl of Solution Q were added to the microplates. The microplates were incubated for a third time at ambient temperature with shaking at 125 rpm for 90 minutes. The resulting mixtures were filtered under reduced pressure through glass fiber filtermats, which were soaked in 500 ml of Solution G for about 30 minutes prior to use. The filtermats were washed for ten seconds with ice-cold Solution F and then, dried at 60° C. for 45 to 60 minutes in a Stabil-Therm® oven (available from Blue M Electric Co., Blue Island, Ill.). After this time, the amount of the radiolabeled 3′,5′-monophosphate/binding protein complex bound to the filtermats was determined by the aforesaid quantification method.

[3] = 0.000111 mM in the synephrine series

With `NCC(O)c1ccc(O)cc1` (racemic) [DL-octopamine] the “Specific Counts (dpm)” value ([1]; 0.00041 mM) was 5942.2 dpm, the “Total Counts (dpm) Determined” value ([1]; 0.00041 mM) was 6899 dpm and the inhibition at 0.41 µM ([1]; 0.00041 mM) was 6.9%. The “Specific Counts (dpm)” value ([1]; 0.00123 mM) was 5639.1 dpm, the “Total Counts (dpm) Determined” value ([1]; 0.00123 mM) was 6595.9 dpm and the inhibition at 1.23 µM ([1]; 0.00123 mM) was 11.7%. The “Specific Counts (dpm)” value ([1]; 0.0037 mM) was 4952.4 dpm, the “Total Counts (dpm) Determined” value ([1]; 0.0037 mM) was 5909.2 dpm and the inhibition at 3.7 µM ([1]; 0.0037 mM) was 22.4%. For the same compound, the “Specific Counts (dpm)” value ([1]; 0.0111 mM) was 3295.5 dpm, the “Total Counts (dpm) Determined” value ([1]; 0.0111 mM) was 4252.3 dpm and the inhibition at 11.1 µM ([1]; 0.0111 mM) was 48.4%. For the same compound, the “Specific Counts (dpm)” value ([1]; 0.0333 mM) was 1934.3 dpm, the “Total Counts (dpm) Determined” value ([1]; 0.0333 mM) was 2891.1 dpm and the inhibition at 33.3 µM ([1]; 0.0333 mM) was 69.7%. The “Specific Counts (dpm)” value ([1]; 0.1 mM) was 1267.9 dpm, the “Total Counts (dpm) Determined” value ([1]; 0.1 mM) was 2224.7 dpm and the inhibition at 100 µM ([1]; 0.1 mM) was 80.1%.

`Cc1ccc(/N=C/N(C)/C=N/c2ccc(C)cc2C)c(C)c1` [Amitraz, amitraz] was tested, and the “Specific Counts (dpm)” value ([1]; 0.000041 mM) was 6020.4 dpm, the “Total Counts (dpm) Determined” value ([1]; 0.000041 mM) was 6899.4 dpm and the inhibition at 0.041 µM ([1]; 0.000041 mM) was 2.5%. The “Specific Counts (dpm)” value ([1]; 0.000123 mM) was 5130.2 dpm, the “Total Counts (dpm) Determined” value ([1]; 0.000123 mM) was 6009.2 dpm and the inhibition at 0.123 µM ([1]; 0.000123 mM) was 16.9%. For the same compound, the “Specific Counts (dpm)” value ([1]; 0.00037 mM) was 3939.2 dpm, the “Total Counts (dpm) Determined” value ([1]; 0.00037 mM) was 4818.2 dpm and the inhibition at 0.37 µM ([1]; 0.00037 mM) was 36.2%. The “Specific Counts (dpm)” value ([1]; 0.00111 mM) was 2562.5 dpm, the “Total Counts (dpm) Determined” value ([1]; 0.00111 mM) was 3441.5 dpm and the inhibition at 1.11 µM ([1]; 0.00111 mM) was 58.5%. The “Specific Counts (dpm)” value ([1]; 0.00333 mM) was 1428.2 dpm, the “Total Counts (dpm) Determined” value ([1]; 0.00333 mM) was 2307.2 dpm and the inhibition at 3.33 µM ([1]; 0.00333 mM) was 76.9%. The “Specific Counts (dpm)” value ([1]; 0.01 mM) was 1049.5 dpm, the “Total Counts (dpm) Determined” value ([1]; 0.01 mM) was 1928.5 dpm and the inhibition at 10 µM ([1]; 0.01 mM) was 83%.

In the case of `CN=CNc1ccc(Cl)cc1C` [DCDM, demethylchlordimeform], the “% Inhibition” value ([1]; 0.0000041 mM) was 11.7%, the “Specific Counts (dpm)” value ([1]; 0.0000041 mM) was 5687.8 dpm and the “Total Counts (dpm) Determined” value ([1]; 0.0000041 mM) was 6512.1 dpm. The “% Inhibition” value ([1]; 0.0000123 mM) was 23.1%, the “Specific Counts (dpm)” value ([1]; 0.0000123 mM) was 4954.7 dpm and the “Total Counts (dpm) Determined” value ([1]; 0.0000123 mM) was 5779.0 dpm. The “% Inhibition” value ([1]; 0.000037 mM) was 38%, the “Specific Counts (dpm)” value ([1]; 0.000037 mM) was 3993.7 dpm and the “Total Counts (dpm) Determined” value ([1]; 0.000037 mM) was 4818 dpm. For the same compound, the “% Inhibition” value ([1]; 0.000111 mM) was 58.3%, the “Specific Counts (dpm)” value ([1]; 0.000111 mM) was 2689.4 dpm and the “Total Counts (dpm) Determined” value ([1]; 0.000111 mM) was 3513.7 dpm. The “% Inhibition” value ([1]; 0.000333 mM) was 77.1%, the “Specific Counts (dpm)” value ([1]; 0.000333 mM) was 1472.8 dpm and the “Total Counts (dpm) Determined” value ([1]; 0.000333 mM) was 2297.1 dpm. For the same compound, the “% Inhibition” value ([1]; 0.001 mM) was 84.1%, the “Specific Counts (dpm)” value ([1]; 0.001 mM) was 1026.2 dpm and the “Total Counts (dpm) Determined” value ([1]; 0.001 mM) was 1850.5 dpm.

`CNCC(O)c1ccc(O)cc1` (centres unmarked) [Synephrine, synephrine] was tested, and the “Specific Counts (dpm)” value [1, 3] was 4516.2 dpm, the “Total Counts (dpm) Determined” value [1, 3] was 5487 dpm and the “Specific Counts (dpm)” value ([1]; 0.000123 mM) was 6081.7 dpm. For the same compound, the “Total Counts (dpm) Determined” value ([1]; 0.000123 mM) was 7052.5 dpm, the inhibition at 0.123 µM ([1]; 0.000123 mM) was 3.1% and the “Specific Counts (dpm)” value ([1]; 0.00037 mM) was 5260 dpm. For the same compound, the “Total Counts (dpm) Determined” value ([1]; 0.00037 mM) was 6230.8 dpm, the inhibition at 0.37 µM ([1]; 0.00037 mM) was 16.2% and the “Specific Counts (dpm)” value ([1]; 0.00333 mM) was 2732.7 dpm. For the same compound, the “Total Counts (dpm) Determined” value ([1]; 0.00333 mM) was 3703.5 dpm, the inhibition at 3.33 µM ([1]; 0.00333 mM) was 56.4% and the “Specific Counts (dpm)” value ([1]; 0.011 mM) was 1605.1 dpm. The “Total Counts (dpm) Determined” value ([1]; 0.011 mM) was 2575.9 dpm, the inhibition at 11 µM ([1]; 0.011 mM) was 74.4% and the “Specific Counts (dpm)” value ([1]; 0.033 mM) was 1074.6 dpm. The “Total Counts (dpm) Determined” value ([1]; 0.033 mM) was 2045.4 dpm and the inhibition at 33 µM ([1]; 0.033 mM) was 82.9%.

With `Nc1ncnc2c1ncn2[C@@H]1O[C@@H]2COP(=O)(O)O[C@H]2[C@H]1O` [cAMP Standard, cyclic adenosine 3′,5′-monophosphate] the “% Inhibition” value ([2]; 0.0000026 mM) was 20.3%, the “Specific Counts (dpm)” value ([2]; 0.0000026 mM) was 5398.5 dpm and the “Total Counts (dpm) Determined” value ([2]; 0.0000026 mM) was 5791 dpm. The “% Inhibition” value ([2]; 0.0000078 mM) was 37.5%, the “Specific Counts (dpm)” value ([2]; 0.0000078 mM) was 4234.8 dpm and the “Total Counts (dpm) Determined” value ([2]; 0.0000078 mM) was 4627.3 dpm. The “% Inhibition” value ([2]; 0.000023 mM) was 61.7%, the “Specific Counts (dpm)” value ([2]; 0.000023 mM) was 2595.8 dpm and the “Total Counts (dpm) Determined” value ([2]; 0.000023 mM) was 2988.3 dpm. The “% Inhibition” value ([2]; 0.00007 mM) was 78.8%, the “Specific Counts (dpm)” value ([2]; 0.00007 mM) was 1435.8 dpm and the “Total Counts (dpm) Determined” value ([2]; 0.00007 mM) was 1828.3 dpm. The “% Inhibition” value ([2]; 0.00021 mM) was 90.4%, the “Specific Counts (dpm)” value ([2]; 0.00021 mM) was 648.8 dpm and the “Total Counts (dpm) Determined” value ([2]; 0.00021 mM) was 1041.3 dpm. The “% Inhibition” value ([2]; 0.00064 mM) was 95.5%, the “Specific Counts (dpm)” value ([2]; 0.00064 mM) was 307.6 dpm and the “Total Counts (dpm) Determined” value ([2]; 0.00064 mM) was 700.3 dpm.
